Measured values: patent US20070123467A1, “Amniotic-derived peptide and uses thereof” (priority 2003, published 2007)
Residues, ends and D or L forms follow the SMILES beside them.

Assays:
[1] = test system: LPS-induced lethality in mice; assay: Potency of LAP in counteracting lethality induced by a DL100 dose of LPS (Example 3); format: in vivo, CD1 mice; details: for Lethality 24 h / Lethality 24 h (dead/total) / Lethality 48 h / Lethality 48 h (dead/total) / Lethality 72 h / Lethality 72 h (dead/total): LPS 1 mg/mouse
Source text: Synthetic peptide or Lajor Active Peptide (LAP) was synthesized chemically to produce the amino acid sequence of the previously-identified bioactive peptide contained in Fractions 2, 3 and 4 of the low molecular weight components of PLB. […] Mice treated with Fraction 4 prepared from PLB were used as positive controls.
Six weeks old female CD1 mice (Charles River, Calco, Italy) were used. The mice were allowed to adapt one week to their environment before commencing the study. They were kept under standard laboratory condition with ad libitum food and water.
The mice were injected i.p. with 1 mg of lipopolysaccharide (LPS) (Sigma Chimica, Milan, Italy). Mortality was recorded every 24 hours up to 72 hours after challenge with LPS.

[2] = test system: LPS-induced lethality; assay: Time and dose effects of LAP on LPS-induced lethality (Example 14); format: in vivo, CD1 mice; details: 1 mg LPS i.p.
Description: To induce lethal endotoxemia, the mice were injected i.p. with 1 mg lipopolysaccharide (LPS, Cod. L6011, lot 112K4063, Sigma Chimica, Milan, Italy). LAP was provided by Lajor BioTech (Pittsburgh, Pa. USA), dissolved volume/volume in trifluoroacetic acid 0.1% in water and Na2HPO4 and injected ip in a final volume of 100 mcl.
Statistical analysis was performed by chi-square for lethality and one way ANOVA for cytokine measurements. P values lower than 0.05 were taken as significant.

[3] = test system: TNF-α; assay: LPS-induced blood levels of TNF-α, ELISA (Example 14); format: in vivo, mouse; details: 10 mcg LAP
Description: (§1) Plasma samples were obtained by blood obtained from individual mice at sacrifice. TNF-α, IFN-γ and IL-10 were measured by mouse specific solid-phase ELISA according to the manufacturer's (Celbio Euroclone, Milan, Italy) instructions. Intra and inter-assays coefficient of variations were within 10%. The limit of sensitivity of the assays were 7 pg/ml. For statistical analysis, samples with undetectable amounts of cytokine were assigned 7 pg as theoretical value.
(§2) Injection of LPS is associated with a marked increase in the blood levels of both type 1 (IFN-γ, TNF-α, IL-1) and type 2 (IL-10) cytokines that occurs with different kinetic after the inoculation of the toxin. To evaluate the effects of LAP treatment on LPS-induced cytokine increase in the circulation of the mice, experiments were carried out where mice treated with 10 mcg LAP or its vehicle, were sacrificed just before injection of a sublethal dose of LPS one hour after treatment with either LAP or PBS (T0) and then 2 (T2) and 8 (T8) hours after LPS.

[4] = test system: IFN-γ; assay: LPS-induced blood levels of IFN-γ, ELISA (Example 14); format: in vivo, mouse; details: 10 mcg LAP; 2 and 8 hours after LPS
Description: as §1, §2

[5] = test system: IL-10; assay: Blood levels of IL-10, ELISA (Example 14); format: in vivo, mouse
Description: as §1, §2

[6] = test system: Con A-induced hepatitis; assay: Con A-induced hepatitis in mice, plasma ALAT, LAP prophylaxis (Example 15); format: in vivo, CD1 male mice
Description: Eight weeks old outbred CD1 male mice (Charles River, Calco, Italy) were kept under standard laboratory conditions (non-specific pathogen free) at 24° C. with free access to food and water. The food was withdrawn 16 hours prior to the experiments.
Con A (Sigma Chemical, St. Louis, Mo.), dissolved in sterile phosphate-buffered saline (PBS) was injected into the tail veins. The groups were treated with either LAP (dissolved volume/volume in trifluoroacetic acid 0.1% in water and Na2HPO4 and then further diluted in water for injection), or its vehicle, 1 hour prior to and one hour after Con A. An additional group of control mice was injected with Con A and received no treatment. Finally, other two groups of mice were also included for comparison that were either injected i.v. with PBS or received no treatment (Table 8). LAP, its vehicle, PBS and Con A were all injected in a final volume of 100 microliter (mcl). The animals were sacrificed for blood collection 8 hours after Con A injection, when biochemical and signs (transaminases increase) of hepatic injury are pronounced (15-1 to 15-9). Mice dead before sacrifice (Table 8) were not included.
Plasma alanine aminotransferase (ALAT) activity was determined by a standard photometric assay using a bichromatic analyzer. Results are expressed in U/L
Results are shown as mean values ±SD. Statistical analysis was performed by one way ANOVA. The effect of LAP was considered to be statistically significant when the difference of ALAT blood levels versus controls yields a p value at least lower than 0.05.

[7] = test system: CD4+CD25− T cells; assay: T cell proliferation assay, thymidine incorporation (Example 21); format: cell-based, Balb/c mouse
Description: T cell proliferation assays were set up as follows. Antigen presenting cells (APCs) obtained as single cell suspension from Balb/c mouse spleens were pulsed with fecal extract (from Balb/C mice) overnight in 24 well-plate (1×10^6 cells/ml with 400 μg/ml of extract). Responding cells were obtained from Balb/c mouse spleens as CD4^+CD25^− T cells. CD4+ T cells were selected by DYNABEADS, and CD4^+CD25^− T cells were then selected using labelled anti-CD25 antibody (e.g. PE-labelled anti-CD25). Responding T cells were co-cultured with APC in 96 round bottom well-plate (3.3×10^4 responding cell/1×10^5 APC in 200 μl) in the presence or absence of LAP for 5 days. Immune cell proliferation was then determined by standard thymidine incorporation assays.

[8] = test system: auto-immune diabetes in the NOD mouse; details: in vivo
Source text: (§3) Female NOD mice (Charles River, Calco, Italy) were maintained under standard laboratory conditions (non-specific pathogen free) with free access to food and water. During the study period of diabetes prevention the mice were screened for diabetes development twice a week by means of glycosuria followed, when positive, by measurement of glycaemia. Mice are diagnosed as diabetic when fasting glycaemia is above 12 mmol/l for 2 consecutive days.
(§4) Euglycaemic female NOD mice were randomly allocated into 4 different groups receiving either LAP or vehicle starting at the 4th or at the 12th week of age. Because insulitis is virtually absent in 4-week-old NOD mice and is actively ongoing at 12 weeks, this approach allowed us to investigate the effects of LAP-treatment in both the early and late diabetogenic stages of the NOD mouse. The readout of the early prohylactic treatment was to evaluate the effect of LAP on development of insulitis, while the readout of the late prophylactic treatment was to evaluate the effect of LAP on the incidence of clinically overt diabetes.
(§5) For the early prophylactic treatment 4-week-old NOD mice were treated with either 10 mcg LAP (dissolved and diluted [100 mcl final volume] as described in Example 14 and 15) or 100 mcl vehicle, daily, six times weekly until the age of 14 weeks. At this point, the euglycaemic mice were sacrificed and their pancreatic specimens collected for histological examination of insulitis.
(§6) For the late prophylactic treatment, 12-week-old NOD mice were randomly divided into two experimental groups, one treated with LAP and the other with vehicle, under the same experimental regime described for the early prophylactic treatment.
(§7) Histological examination of the pancreatic islets was performed in a blind fashion by two pathologists unaware of the status and/or the treatment of the animals, as described previously (See 16-3 to 16-5). The degree of mononuclear cell infiltration is graded as follows: 0, no infiltrate; 1, peri-ductular infiltrate; 2, peri-islet infiltrate; 3, intra-islet infiltrate; 4, intra-islet infiltrate associated with β-cell destruction. At least 12 islets are counted for each mouse. The mean score for each pancreas is calculated by dividing the total score by the numbers of islets.

[9] = test system: auto-immune diabetes in the NOD mouse; assay: LAP in development of insulitis and auto-immune diabetes in NOD mouse (Example 16)
Source text: as §3, §4, §5, §6, §7

Q: Which results are given for `CC[C@H](C)[C@H](NC(=O)[C@H](CCC(=O)O)NC(=O)[C@@H](NC(=O)[C@H](C)NC(=O)[C@H](CO)NC(=O)[C@@H](NC(=O)[C@@H](N)CC(N)=O)C(C)C)C(C)C)C(=O)N[C@@H](C)C(=O)O` [LAP, NH2-NVSAVEIA-COOH] (H-NVSAVEIA-OH)?
A: Lethality 24 h ([1]; 2.5 mcg at −24, −1 h): 10%; Lethality 24 h (dead/total) ([1]; 2.5 mcg at −24, −1 h): (2/20); Lethality 48 h ([1]; 2.5 mcg at −24, −1 h): 35%; Lethality 48 h (dead/total) ([1]; 2.5 mcg at −24, −1 h): (7/20); Lethality 72 h ([1]; 2.5 mcg at −24, −1 h): 80%; Lethality 72 h (dead/total) ([1]; 2.5 mcg at −24, −1 h): (16/20); Lethality 24 h ([1]; 10 mcg at −24, −1 h): 10%; Lethality 24 h (dead/total) ([1]; 10 mcg at −24, −1 h): (2/20); Lethality 48 h ([1]; 10 mcg at −24, −1 h): 35%; Lethality 48 h (dead/total) ([1]; 10 mcg at −24, −1 h): (7/20); Lethality 72 h ([1]; 10 mcg at −24, −1 h): 50%; Lethality 72 h (dead/total) ([1]; 10 mcg at −24, −1 h): (10/20) c; kinetic and cumulative rate of lethality (in words) ([1]; different doses of LAP tested): unaffected; cumulative rate of lethality (in words) ([1]; prophylactic treatment with 10 ucg): markedly reduced; Lethality 72 h ([2]; 1 mcg at −24, −1 h): (79%); Lethality 72 h (dead/total) ([2]; 1 mcg at −24, −1 h): 11/14; Lethality 72 h ([2]; 10 mcg at +1 h): (71%); Lethality 72 h (dead/total) ([2]; 10 mcg at +1 h): 10/14; Lethality 72 h ([2]; 10 mcg at −1, +1 h): (14%); Lethality 72 h (dead/total) ([2]; 10 mcg at −1, +1 h): 2/14; Lethality 72 h ([2]; 10 mcg at −24, −1 h): (14%); Lethality 72 h (dead/total) ([2]; 10 mcg at −24, −1 h): 2/14; Lethality 72 h ([2]; 20 mcg at −1, +1 h): (100%); Lethality 72 h (dead/total) ([2]; 20 mcg at −1, +1 h): 14/14; reduction of TNF-α blood levels vs. controls ([3]; 2 hours after sublethal LPS (0.5 mg/mouse), p=0.01): 37.3%; reduction of TNF-α blood levels vs. controls ([3]; 8 hours after sublethal LPS (0.5 mg/mouse), p=0.005): 76.5%; LPS-induced blood levels of IFN-γ (in words) [4]: did not modify; LPS-induced blood levels of IL-10 (in words) ([5]; 10 mcg LAP, 2 and 8 hours after LPS): did not modify; mice with detectable levels of IL-10 in the blood ([5]; T0, 1 hour after 10 mcg LAP, before LPS, 0 out of 10 controls): 3 out of 10; reduction of ALAT vs controls ([6]; 8 hours after Con A): 84.7%; ALAT values ([6]; LAP 1 hour prior to and one hour after Con A, 8 hours after Con A, mean ± SD): 686 ± 197b U/L; Lethality (dead before sacrifice/total) ([6]; LAP 1 hour prior to and one hour after Con A, within 8 hours): 1/15; CD4+CD25− T cell proliferation in response to antigen-pulsed APCs in the presence of the peptide ([7]; 5 days co-culture): inhibited; T cell proliferation in response to APCs pre-treated with the peptide ([7]; APCs pre-treated for 24 hours): not affected; tolerability of long-term administration (clinical appearance and behaviours) [8]: apparently well tolerated; NOD mice that developed diabetes during the treatment period ([9]; early prophylaxis, 4 to 14 weeks of age, 2 of 8 vehicle controls): None and none; insulitis score ([9]; early prophylaxis, 10 mcg daily six times weekly from 4 to 14 weeks of age, vehicle 2±0.9): 0.9±0.6; azotemia and transaminases values vs controls ([9]; mice sacrificed at week 14): no differences
